ChEMBL document CHEMBL1201862, “PubChem BioAssay data set” (2004)
Calls of active or inactive are those of the source.

Legend:
Vero = test: cells; format: functional; conditions: Chlorocebus sabaeus
[1] = Fluorescence-based cell-based high throughput dose response assay for inhibitors of the interaction of nucleotide-binding oligomerization domain containing 2 (NOD2) and the receptor-interacting serine-threonine kinase 2 (RIPK2).; format: functional; conditions: Homo sapiens
Mu-type opioid receptor = Mu-type opioid receptor (Homo sapiens, UniProt P35372); format: functional, cell-based;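 note: U2OS cells with beta-arrestin recruitment to OPRM1 by beta-gal complementation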
[2] = biological target: 5-hydroxytryptamine receptor 2A (Mus musculus, UniProt P35363); format: functional, cell-based;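 note: CHO-K1 cells with tagged receptor and beta-arrestin; agonist potency measured as compound-induced activation of the receptor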
Beta-lactamase [3] = biological target: Beta-lactamase (Pseudomonas aeruginosa, UniProt Q79MP6);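 note: biochemical dose-response test of metallo-beta-lactamase enzyme inhibition, read out by epi-absorbance; purified recombinant IMP-1 metallo-beta-lactamase with nitrocefin as substrate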
Beta-lactamase [4] = biological target: Beta-lactamase (Salmonella choleraesuis (strain SC-B67), UniProt Q5J463)
Insulin-degrading enzyme [5] = biological target: T1, Insulin-degrading enzyme (Homo sapiens, UniProt P14735); test: recombinant IDE activation, cell-free – biochemical, fluorescence polarization, counter-screen for IDE activator project, dose response (AID 588681)
T1 sequence (P14735 whole entry): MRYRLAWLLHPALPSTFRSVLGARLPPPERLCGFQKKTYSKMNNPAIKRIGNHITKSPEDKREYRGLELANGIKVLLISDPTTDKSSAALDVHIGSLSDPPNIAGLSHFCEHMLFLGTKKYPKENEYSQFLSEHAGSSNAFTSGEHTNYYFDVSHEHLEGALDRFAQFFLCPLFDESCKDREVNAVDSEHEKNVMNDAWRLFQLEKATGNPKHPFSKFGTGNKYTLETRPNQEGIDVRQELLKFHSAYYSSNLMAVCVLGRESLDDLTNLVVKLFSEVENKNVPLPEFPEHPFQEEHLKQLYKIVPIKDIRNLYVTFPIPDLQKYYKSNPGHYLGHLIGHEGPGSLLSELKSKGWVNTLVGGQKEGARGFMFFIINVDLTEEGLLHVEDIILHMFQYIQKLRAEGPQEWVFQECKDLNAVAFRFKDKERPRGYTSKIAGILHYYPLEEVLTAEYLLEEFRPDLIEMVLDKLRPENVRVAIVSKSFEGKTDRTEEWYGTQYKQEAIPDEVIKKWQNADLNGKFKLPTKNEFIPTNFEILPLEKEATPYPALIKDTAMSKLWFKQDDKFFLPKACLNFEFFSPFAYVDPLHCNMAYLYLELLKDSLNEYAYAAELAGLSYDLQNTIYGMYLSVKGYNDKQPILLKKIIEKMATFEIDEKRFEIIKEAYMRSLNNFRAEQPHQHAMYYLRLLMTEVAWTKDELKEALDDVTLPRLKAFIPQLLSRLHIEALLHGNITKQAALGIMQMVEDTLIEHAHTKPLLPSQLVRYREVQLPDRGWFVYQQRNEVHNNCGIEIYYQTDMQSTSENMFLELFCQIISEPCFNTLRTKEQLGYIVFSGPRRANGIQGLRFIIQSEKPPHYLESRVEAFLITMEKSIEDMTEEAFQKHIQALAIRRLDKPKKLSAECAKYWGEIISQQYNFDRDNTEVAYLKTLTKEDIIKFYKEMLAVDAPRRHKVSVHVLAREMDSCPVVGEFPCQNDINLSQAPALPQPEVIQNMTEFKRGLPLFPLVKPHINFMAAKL

Insulin-degrading enzyme [6] = biological target: T1, Insulin-degrading enzyme; test: cellular IDE activation of Abeta substrate cleavage – fluorescence polarization, HEK cells, dose response (AID 588439); format: functional, cell-based
HEK293 [7] = test: membrane integrity loss in HEK cells – cell-based, fluorescence, cytotoxicity control for IDE activator project, dose response (AID 588440); format: functional; conditions: Homo sapiens;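 note: cytotoxicity by LDH release measuring loss of membrane integrity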
HEK293 [8] = test: optical interference in Abeta FP readout, dose response, artefact control for IDE activator project, biochemical, fluorescence polarization (AID 588442); format: functional, cell-based; conditions: Homo sapiens
[9] = biological target: Broad substrate specificity ATP-binding cassette transporter ABCG2 (Homo sapiens, UniProt Q9UNQ0); test: blockers of JC-1 export by ABCG2 – Ig-MXP3 cells, flow cytometry, dose response (AID 1690); format: functional
[10] = Vero cell cytotoxicity, cytotoxicity control for M. tuberculosis inhibitor project, purified and synthesized samples, set 3 (AID 504684); format: functional
[11] = bead-based luminescence quenchers, dual-tagged ARNT – biochemical, AlphaScreen, cherry-pick, artefact control for ARNT-TACC3 interaction inhibitor project, dose response (AID 651705); format: functional;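 note: AlphaScreen bead proximity signal that flags compounds interfering with the detection technology; potency reflects signal decrease which marks the compound as an assay artifact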
[12] = biological target: T2, RNA-binding protein pos-1 (Caenorhabditis elegans, UniProt G5EF15); test: disruptors of C. elegans POS-1 RNA interaction – biochemical, fluorescence polarization, dose response (AID 1964);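 note: purified POS-1 fused to maltose binding protein made in E. coli; potency of compounds blocking POS-1 binding to fluorescent RNA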
T2 sequence (G5EF15 whole entry): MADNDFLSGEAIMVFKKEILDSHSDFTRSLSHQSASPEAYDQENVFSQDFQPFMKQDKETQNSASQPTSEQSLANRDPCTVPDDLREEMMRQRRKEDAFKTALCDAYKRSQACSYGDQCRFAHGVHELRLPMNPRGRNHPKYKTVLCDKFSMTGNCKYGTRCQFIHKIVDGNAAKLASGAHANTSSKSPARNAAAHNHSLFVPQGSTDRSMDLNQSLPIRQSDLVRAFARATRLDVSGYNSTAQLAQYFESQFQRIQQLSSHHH

[13] = biological target: T3, Zinc finger protein mex-5 (Caenorhabditis elegans, UniProt Q9XUB2); test: potency of MEX-5 RNA-binding blockers – biochemical, C. elegans, fluorescence polarization, dose response (AID 1960)
T3 sequence (Q9XUB2 whole entry): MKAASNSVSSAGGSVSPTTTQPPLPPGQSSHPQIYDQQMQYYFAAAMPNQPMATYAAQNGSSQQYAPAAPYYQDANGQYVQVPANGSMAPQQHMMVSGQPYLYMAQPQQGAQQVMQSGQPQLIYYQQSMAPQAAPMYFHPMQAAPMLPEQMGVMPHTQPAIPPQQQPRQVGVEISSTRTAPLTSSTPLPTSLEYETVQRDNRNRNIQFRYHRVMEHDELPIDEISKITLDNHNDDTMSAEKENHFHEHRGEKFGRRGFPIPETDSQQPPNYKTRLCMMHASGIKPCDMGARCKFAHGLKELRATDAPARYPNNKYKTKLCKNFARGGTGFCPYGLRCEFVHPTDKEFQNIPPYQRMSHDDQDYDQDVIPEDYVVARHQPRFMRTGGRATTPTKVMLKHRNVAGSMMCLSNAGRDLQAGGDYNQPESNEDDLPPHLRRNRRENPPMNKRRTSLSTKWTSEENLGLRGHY

[14] = biological target: Arf-GAP with SH3 domain, ANK repeat and PH domain-containing protein 1 (Homo sapiens, UniProt Q9ULH1); format: functional;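 note: biochemical fluorescence polarization dose–response screen measuring inhibition of ASAP1; ASAP1 GAP domain stimulating GTP hydrolysis by truncated human ARF1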
Sequence of Arf-GAP with SH3 domain, ANK repeat and PH domain-containing protein 1 (Q9ULH1 whole entry, the tested form may be a part): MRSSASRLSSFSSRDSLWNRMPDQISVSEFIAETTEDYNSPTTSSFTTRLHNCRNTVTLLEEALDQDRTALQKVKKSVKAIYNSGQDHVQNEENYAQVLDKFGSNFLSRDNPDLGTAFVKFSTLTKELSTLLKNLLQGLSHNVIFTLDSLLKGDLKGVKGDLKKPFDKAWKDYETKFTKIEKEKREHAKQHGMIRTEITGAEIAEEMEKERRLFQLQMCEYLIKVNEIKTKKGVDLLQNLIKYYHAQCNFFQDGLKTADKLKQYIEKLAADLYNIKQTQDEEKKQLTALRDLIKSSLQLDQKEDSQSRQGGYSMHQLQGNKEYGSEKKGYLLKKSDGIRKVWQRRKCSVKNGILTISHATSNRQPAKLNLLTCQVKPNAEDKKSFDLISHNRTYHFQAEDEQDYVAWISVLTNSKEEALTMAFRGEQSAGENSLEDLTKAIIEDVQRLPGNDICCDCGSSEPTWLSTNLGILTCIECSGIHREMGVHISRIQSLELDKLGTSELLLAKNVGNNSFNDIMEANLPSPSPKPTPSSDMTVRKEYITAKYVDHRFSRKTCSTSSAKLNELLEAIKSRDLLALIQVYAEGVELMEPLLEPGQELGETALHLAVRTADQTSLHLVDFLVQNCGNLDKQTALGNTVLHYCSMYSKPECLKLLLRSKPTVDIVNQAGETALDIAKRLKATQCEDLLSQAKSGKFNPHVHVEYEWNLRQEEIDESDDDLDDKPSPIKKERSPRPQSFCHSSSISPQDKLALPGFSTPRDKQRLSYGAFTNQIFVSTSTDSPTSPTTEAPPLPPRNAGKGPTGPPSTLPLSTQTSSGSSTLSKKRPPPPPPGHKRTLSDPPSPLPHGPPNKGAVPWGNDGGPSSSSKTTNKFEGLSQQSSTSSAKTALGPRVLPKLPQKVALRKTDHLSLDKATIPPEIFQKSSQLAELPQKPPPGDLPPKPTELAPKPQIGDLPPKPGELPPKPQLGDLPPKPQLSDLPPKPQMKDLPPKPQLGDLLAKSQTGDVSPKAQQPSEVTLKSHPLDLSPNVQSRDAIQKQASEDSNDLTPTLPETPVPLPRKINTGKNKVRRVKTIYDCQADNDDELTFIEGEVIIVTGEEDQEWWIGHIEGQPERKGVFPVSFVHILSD

Sequence of Beta-lactamase (Salmonella choleraesuis (strain SC-B67), UniProt Q5J463) (Q5J463 whole entry): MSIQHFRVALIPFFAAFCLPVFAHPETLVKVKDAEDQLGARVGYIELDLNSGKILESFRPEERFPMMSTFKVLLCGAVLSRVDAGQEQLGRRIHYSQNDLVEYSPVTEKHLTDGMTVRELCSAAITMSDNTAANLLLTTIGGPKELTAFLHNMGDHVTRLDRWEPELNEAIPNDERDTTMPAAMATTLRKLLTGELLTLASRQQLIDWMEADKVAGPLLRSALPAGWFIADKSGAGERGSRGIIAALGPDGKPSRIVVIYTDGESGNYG
Sequence of Broad substrate specificity ATP-binding cassette transporter ABCG2 (Q9UNQ0 whole entry): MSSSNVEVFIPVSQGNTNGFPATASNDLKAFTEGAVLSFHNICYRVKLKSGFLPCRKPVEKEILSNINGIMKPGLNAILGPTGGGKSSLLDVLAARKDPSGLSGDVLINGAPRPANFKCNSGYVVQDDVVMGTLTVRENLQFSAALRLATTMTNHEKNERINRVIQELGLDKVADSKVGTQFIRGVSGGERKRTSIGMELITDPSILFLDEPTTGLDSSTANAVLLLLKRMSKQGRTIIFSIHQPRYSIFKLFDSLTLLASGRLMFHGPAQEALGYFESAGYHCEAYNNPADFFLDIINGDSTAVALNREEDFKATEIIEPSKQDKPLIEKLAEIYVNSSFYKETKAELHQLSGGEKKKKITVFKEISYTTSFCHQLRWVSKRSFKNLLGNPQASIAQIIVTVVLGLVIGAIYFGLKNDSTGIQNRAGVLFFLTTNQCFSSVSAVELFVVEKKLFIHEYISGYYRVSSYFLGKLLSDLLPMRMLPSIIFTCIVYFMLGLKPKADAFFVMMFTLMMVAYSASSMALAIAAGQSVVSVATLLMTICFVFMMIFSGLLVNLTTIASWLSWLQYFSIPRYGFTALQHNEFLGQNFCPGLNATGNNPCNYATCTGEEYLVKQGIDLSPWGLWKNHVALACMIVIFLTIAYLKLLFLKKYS
Sequence of Mu-type opioid receptor (P35372 whole entry): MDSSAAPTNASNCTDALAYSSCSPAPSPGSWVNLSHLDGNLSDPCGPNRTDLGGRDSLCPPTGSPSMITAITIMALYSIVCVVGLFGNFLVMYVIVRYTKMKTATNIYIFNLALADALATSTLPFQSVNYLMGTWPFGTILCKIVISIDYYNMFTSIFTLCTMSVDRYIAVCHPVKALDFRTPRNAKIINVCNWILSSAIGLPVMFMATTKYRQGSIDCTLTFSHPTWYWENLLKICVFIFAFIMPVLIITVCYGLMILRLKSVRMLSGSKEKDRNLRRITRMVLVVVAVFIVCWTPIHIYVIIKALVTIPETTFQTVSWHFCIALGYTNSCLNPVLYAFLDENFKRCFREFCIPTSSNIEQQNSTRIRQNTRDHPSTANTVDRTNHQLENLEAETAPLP
Sequence of 5-hydroxytryptamine receptor 2A (P35363 whole entry): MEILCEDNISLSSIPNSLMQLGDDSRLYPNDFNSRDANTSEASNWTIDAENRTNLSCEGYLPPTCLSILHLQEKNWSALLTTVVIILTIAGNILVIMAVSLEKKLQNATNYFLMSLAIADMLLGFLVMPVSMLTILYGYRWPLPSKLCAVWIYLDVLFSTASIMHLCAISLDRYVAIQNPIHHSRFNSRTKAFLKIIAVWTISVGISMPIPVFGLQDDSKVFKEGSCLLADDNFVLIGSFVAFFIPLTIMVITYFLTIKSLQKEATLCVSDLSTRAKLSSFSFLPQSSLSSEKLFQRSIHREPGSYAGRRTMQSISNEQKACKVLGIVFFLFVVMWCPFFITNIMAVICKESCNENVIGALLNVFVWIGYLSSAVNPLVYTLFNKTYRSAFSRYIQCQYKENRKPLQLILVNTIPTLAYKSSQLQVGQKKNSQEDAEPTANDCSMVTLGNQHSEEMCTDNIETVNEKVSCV
Sequence of Beta-lactamase (Pseudomonas aeruginosa, UniProt Q79MP6) (Q79MP6 whole entry): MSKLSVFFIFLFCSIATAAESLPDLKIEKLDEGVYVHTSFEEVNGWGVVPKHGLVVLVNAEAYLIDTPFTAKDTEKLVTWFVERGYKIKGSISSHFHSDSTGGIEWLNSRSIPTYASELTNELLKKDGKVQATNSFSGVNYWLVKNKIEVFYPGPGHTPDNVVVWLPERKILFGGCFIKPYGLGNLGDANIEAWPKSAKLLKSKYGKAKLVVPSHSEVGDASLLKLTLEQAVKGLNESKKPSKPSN

## O=C1Nc2ccccc2/C1=C\C(=O)c1ccccc1
Vero
  CC50: > 25 µM (active)
[1]
  IC50: 5 µM (active)

## O=C(c1ccco1)N1CCN(CC2CC3C=CC2C3)CC1 (stereo unspecified)
Mu-type opioid receptor
  EC50: 92.4 µM (inactive)
[2]
  EC50: 2.96 µM (active)

## CCCCN(C)C1=CC2=CC(=C(C#N)C#N)CCC2CC1 (stereo unspecified)
Beta-lactamase [3]
  IC50: 5.07 µM (active)
Beta-lactamase [4]
  IC50: 1.47 µM (active)
Insulin-degrading enzyme [5]
  EC50: > 54.7 µM (inactive)
Insulin-degrading enzyme [6]
  EC50: > 54.7 µM (inactive)
HEK293 [7]
  IC50: > 89.2 µM (inactive)
HEK293 [8]
  EC50: 1.55 µM (active)
[9]
  EC50: 4.42 µM (active)

## O=C(CSc1nccc(O)n1)Nc1ccc(Oc2ccccc2)cc1
[10]
  CC50: > 100 µM (active)

## O=C(COc1ccccc1)Nc1nnc(-c2ccco2)o1
[11]
  AC50: 95 µM (active)

## Cc1cc(N/C=C2/C(=O)N(c3ccc4c(c3)OCO4)C(=O)c3ccccc32)ccn1
[12]
  EC50: 27.5 µM (active)
[13]
  EC50: 188 µM (inconclusive)
[14]
  IC50: 22.1 µM (inactive)
